In ChEMBL document CHEMBL5226386, “Discovery and Biosynthesis of Glycosylated Cycloheximide from a Millipede-Associated Actinomycete” (J Nat Prod, 2023) one finds MIC and IC50 data, which are given here for five compounds.

Values after ≈ are worked out from the molar mass of the structure shown.

The test system of one experiment is Cryptococcus neoformans. The experiment in a line: Antifungal activity against Cryptococcus neoformans H99 assessed as inhibition of fungal growth incubated for 24 hrs by agar diffusion method. The class given is functional.
Another experiment concerns MCF7. The experiment in a line: Cytotoxicity against human MCF7 cells assessed as reduction in cell viability incubated for 48 hrs by CCK-8 assay. Format: functional, cell-based. To be noted: MCF7, 48 h. A general note: Tetrazolium assays rely on reduction of a dye to a coloured formazan, in cell work by metabolically active cells.
In the next experiment the test system is Saccharomyces cerevisiae. The experiment in a line: Antifungal activity against Saccharomyces cerevisiae BY4741 assessed as inhibition of fungal growth incubated for 24 hrs by agar diffusion method. The class given is functional. In general terms: In agar diffusion tests the substance spreads into inoculated agar from a disc or well.
The test system of another experiment is A549. Nature of the experiment: Cytotoxicity against human A549 cells assessed as reduction in cell viability incubated for 48 hrs by CCK-8 assay. Format: functional, cell-based. To be noted: A549, 48 h.
For another experiment, the system named is HeLa. The experiment in a line: Cytotoxicity against human HeLa cells assessed as reduction in cell viability incubated for 48 hrs by CCK-8 assay. The class given is functional, cell-based.

Regarding `C[C@@H]1C/C(=C\CC2CC(=O)NC(=O)C2)C(=O)[C@@H](C)C1`, the MIC in the experiment with Cryptococcus neoformans and in the experiment with Saccharomyces cerevisiae was above 32 µg/mL each time. Further, the IC50 with MCF7, in the experiment with A549 and in the experiment on HeLa was above 20000 nM in each case.

As to `Cc1cc(C)c(O[C@@H]2O[C@@H](C)[C@H](O)[C@@H](O)[C@H]2O)c(C(=O)CC2CC(=O)NC(=O)C2)c1`, the minimal inhibitory concentration (MIC) in the experiment with Cryptococcus neoformans and in the experiment on Saccharomyces cerevisiae was above 32 µg/mL in each case. The IC50 in the experiment on MCF7, in the experiment on A549 and in the experiment on HeLa was above 20000 nM in each case.

As to `C[C@@H]1C[C@@H]([C@@H](CC2CC(=O)NC(=O)C2)O[C@H]2O[C@H](CO)[C@@H](O)[C@H](O)[C@H]2O)C(=O)[C@@H](C)C1`, the minimal inhibitory concentration (MIC) in the experiment with Cryptococcus neoformans and in the experiment with Saccharomyces cerevisiae was above 32 µg/mL each time. The IC50 with MCF7, in the experiment with A549 and with HeLa was above 20000 nM in each case.

Regarding `C[C@@H]1C[C@@H]([C@H](O)CC2CC(=O)NC(=O)C2)C(=O)[C@@H](C)C1` [CYCLOHEXIMIDE], the MIC in the experiment on Cryptococcus neoformans and in the experiment on Saccharomyces cerevisiae was 2 µg/mL (≈ 7.11 µM) each time. In addition, the values for the IC50 in the experiment on MCF7, in the experiment on A549 and in the experiment with HeLa were 530 nM, 670 nM and 1000 nM, respectively.

Consider `COc1cccc2c1C(=O)c1c(O)c3c(c(O)c1C2=O)C[C@@](O)(C(=O)CO)C[C@@H]3O[C@H]1C[C@H](N)[C@H](O)[C@H](C)O1` [DOXORUBICIN], for which the values for the IC50 in the experiment with MCF7, with A549 and with HeLa were 970 nM, 600 nM and 90 nM, respectively.
